Earlier results, collected in patent publication US20100136097A1, “Systems for modulating inflammation” (Searete LLC, a limited liability corporation of the State …, priority 2008, published 2010).

What was measured:
[1] = single agent, infused at 400 mg over one hour
[2] = system: proteasomal activity in cultured breast cancer cells; conditions: through binding of copper
[3] = mice
[4] = system: Src family kinases (Src, Lck, Yes, Fyn); conditions: at nanomolar concentrations

**Q.** With `CCN(CC)CCCC(C)Nc1ccnc2cc(Cl)ccc12.O=P(O)(O)O.O=P(O)(O)O` (centres unmarked) [Chloroquine phosphate, 7-chloro-4-[[4-(diethylamino)-1-methylbutyl]amino]quinoline phosphate (1:2)] as the compound, how does the tolerability of infusion [1] read?
**A.** without complication

**Q.** For `CCN(CC)CCCC(C)Nc1ccnc2cc(Cl)ccc12` (centres unmarked) [Chloroquine], which “inhibition of CpG-induced Src family kinase activation, or its dependent cellular responses” value (Src family kinase) is on record?
**A.** does not inhibit

**Q.** Which proteasomal activity [2] does the source give for `CCN(CC)C(=S)SSC(=S)N(CC)CC` [Disulfiram, 1-(diethylthiocarbamoyldisulfanyl)-N,N-diethyl-methanethioamide] here?
**A.** inhibits proteasomal activity

**Q.** Which “prevention of lethal septic shock” value [3] does the source give for `Cl.Cl.Nc1ccccc1Oc1ccc2c(N)nsc2c1` [Example M62812, 3-amino-6-(2-aminophenoxy)-1,2-benzisothiazole dihydrochloride] here?
**A.** prevents lethal septic shock

**Q.** For `Cc1nc(Nc2ncc(C(=O)Nc3c(C)cccc3Cl)s2)cc(N2CCN(CCO)CC2)n1.O` [dasatinib, N-(2-chloro-6-methylphenyl)-2-[[6-[4-(2-hydroxyethyl)-1-piperazinyl]-2-methyl-4-pyrimidinyl]amino]-5-thiazolecarboxamide, monohydrate], which “inhibition of Src family kinases (Src, Lck, Yes, Fyn)” value [4] is on record?
**A.** inhibits
